Results: patent US10294202B2, “Pyrrolidinones as herbicides” (FMC Corporation, priority 2013, dated 2019)

Legend:
Assay in all cases: Test D pre-/postemergence herbicide test
buckwheat, wild = type: in vivo, Polygonum convolvulus; conditions: for Plant response rating: Buckwheat, Wild, scale 0 to 100; for Plant response rating, Buckwheat, Wild: scale 0 to 100 (0 no effect, 100 complete control)
Text: (§1) Seeds of plant species selected from bluegrass (annual bluegrass, Poa annua), blackgrass (Alopecurus myosuroides), canarygrass (littleseed canarygrass, Phalaris minor), chickweed (common chickweed, Stellaria media), galium (catchweed bedstraw, Galium aparine), bromegrass, downy (downy bromegrass, Bromus tectorum), field poppy (Papaver rhoeas), field violet (Viola arvensis), foxtail, green (green foxtail, Setaria viridis), deadnettle (henbit deadnettle, Lamium amplexicaule), ryegrass, Italian (Italian ryegrass, Lolium multiflorum), kochia (Kochia scoparia), lambsquarters (Chenopodium album), oilseed rape (Brassica napus), pigweed (Amaranthus retroflexus), chamomile (scentless chamomile, Matricaria inodora), Russian thistle (Salsola kali), speedwell (bird's-eye speedwell, Veronica persica), barley, spring (spring barley, Hordeum vulgare), wheat, spring (spring wheat, Triticum aestivum), buckwheat, wild (wild buckwheat, Polygonum convolvulus), mustard, wild (wild mustard, Sinapis arvensis), oat, wild (wild oat, Avena fatua), radish, wild (wild radish, Raphanus raphanistrum), […]), barley, winter (winter barley, Hordeum vulgare), and wheat, winter (winter wheat, Triticum aestivum) were planted into a silt loam soil and treated preemergence with test chemicals formulated in a non-phytotoxic solvent mixture which included a surfactant. At the same time, these species were planted in pots containing Redi-Earth® planting medium (Scotts Company, 14111 Scottslawn Road, Marysville, Ohio 43041) comprising spaghnum peat moss, vermiculite, wetting agent and starter nutrients and treated with postemergence applications of the test chemicals formulated in the same manner. Plants ranged in height from 2 to 18 cm (1- to 4-leaf stage). Treated plants and controls were maintained in a controlled growth environment for 7 to 21 days after which time all species were compared to controls and visually evaluated. Plant response ratings, summarized in Table D, are based on a scale of 0 to 100 where 0 is no effect and 100 is complete control. A dash (-) response means no test result.

barley, winter = type: in vivo, Hordeum vulgare; conditions: for Plant response rating: Barley, Winter, scale 0 to 100; for Plant response rating, Barley, Winter: scale 0 to 100 (0 no effect, 100 complete control)
Text: as §1

canarygrass = type: in vivo, Phalaris minor; conditions: for Plant response rating: Canarygrass, scale 0 to 100; for Plant response rating, Canarygrass: scale 0 to 100 (0 no effect, 100 complete control)
Text: as §1

bluegrass = type: in vivo, Poa annua; conditions: for Plant response rating: Bluegrass, scale 0 to 100; for Plant response rating, Bluegrass: scale 0 to 100 (0 no effect, 100 complete control)
Text: as §1

Row | Structure (SMILES) | Plant response rating (buckwheat, wild; Postemergence, 16 g ai/ha) | Plant response rating (buckwheat, wild; Postemergence, 31 g ai/ha) | Plant response rating (buckwheat, wild; Postemergence, 62 g ai/ha) | Plant response rating (buckwheat, wild; Postemergence, 125 g ai/ha) | Plant response rating (buckwheat, wild; Postemergence, 250 g ai/ha) | Plant response rating, Buckwheat, Wild (buckwheat, wild; Preemergence, 31 g ai/ha) | Plant response rating, Buckwheat, Wild (buckwheat, wild; Preemergence, 62 g ai/ha) | Plant response rating (buckwheat, wild; Preemergence, 250 g ai/ha) | Plant response rating (barley, winter; Postemergence, 16 g ai/ha) | Plant response rating (barley, winter; Postemergence, 31 g ai/ha) | Plant response rating (barley, winter; Postemergence, 62 g ai/ha) | Plant response rating (barley, winter; Postemergence, 125 g ai/ha) | Plant response rating (barley, winter; Postemergence, 250 g ai/ha) | Plant response rating, Barley, Winter (barley, winter; Preemergence, 31 g ai/ha) | Plant response rating, Barley, Winter (barley, winter; Preemergence, 62 g ai/ha) | Plant response rating (barley, winter; Preemergence, 250 g ai/ha) | Plant response rating (canarygrass; Postemergence, 16 g ai/ha) | Plant response rating (canarygrass; Postemergence, 31 g ai/ha) | Plant response rating (canarygrass; Postemergence, 62 g ai/ha) | Plant response rating (canarygrass; Postemergence, 125 g ai/ha) | other results
1 | O=C1NCC(c2ccc(F)c(F)c2)C1C(=O)Nc1cccc(F)c1 (racemic) [Compound 12] | 0 | 0 | 10 | 10 | 10 | 0 | 0 | 100 | 0 | 0 | 0 | 0 | 0 | 0 | 0 | 0 | 0 | 0 | 15 | 15 | Plant response rating, Buckwheat, Wild (buckwheat, wild; Preemergence, 16 g ai/ha): 0; Plant response rating (buckwheat, wild; Preemergence, 125 g ai/ha): 0; Plant response rating, Barley, Winter (barley, winter; Preemergence, 16 g ai/ha): 0; Plant response rating (barley, winter; Preemergence, 125 g ai/ha): 0; Plant response rating (canarygrass; Postemergence, 250 g ai/ha): 30; Plant response rating, Canarygrass (canarygrass; Preemergence, 31 g ai/ha): 0; Plant response rating, Canarygrass (canarygrass; Preemergence, 62 g ai/ha): 0; Plant response rating, Canarygrass (canarygrass; Preemergence, 16 g ai/ha): 0; Plant response rating (canarygrass; Preemergence, 125 g ai/ha): 20; Plant response rating (canarygrass; Preemergence, 250 g ai/ha): 40; Plant response rating (bluegrass; Postemergence, 16 g ai/ha): 0; Plant response rating (bluegrass; Postemergence, 31 g ai/ha): 0; Plant response rating (bluegrass; Postemergence, 62 g ai/ha): 0; Plant response rating (bluegrass; Postemergence, 125 g ai/ha): 10; Plant response rating (bluegrass; Postemergence, 250 g ai/ha): 10; Plant response rating, Bluegrass (bluegrass; Preemergence, 31 g ai/ha): 0; Plant response rating, Bluegrass (bluegrass; Preemergence, 62 g ai/ha): 0; Plant response rating, Bluegrass (bluegrass; Preemergence, 16 g ai/ha): 0; Plant response rating (bluegrass; Preemergence, 125 g ai/ha): 20; Plant response rating (bluegrass; Preemergence, 250 g ai/ha): 40
2 | O=C1NCC(c2cc(F)c(F)c(F)c2)C1C(=O)Nc1ccccc1C(F)(F)F (racemic) [Compound 33] | 0 | 0 | 0 | 0 | 10 |  |  |  | 0 | 0 | 0 | 0 | 0 |  |  |  | 0 | 0 | 0 | 0 | Plant response rating (canarygrass; Postemergence, 250 g ai/ha): 0; Plant response rating (bluegrass; Postemergence, 16 g ai/ha): 0; Plant response rating (bluegrass; Postemergence, 31 g ai/ha): 0; Plant response rating (bluegrass; Postemergence, 62 g ai/ha): 0; Plant response rating (bluegrass; Postemergence, 125 g ai/ha): 0; Plant response rating (bluegrass; Postemergence, 250 g ai/ha): 0
3 | O=C1NCC(c2cccc(C(F)(F)F)c2)C1C(=O)Nc1cccc(F)c1F (stereo not shown) [Compound 241] |  |  |  |  |  | 15 | 15 | 80 |  |  |  |  |  | 10 | 10 | 65 |  |  |  |  | Plant response rating, Buckwheat, Wild (buckwheat, wild; Preemergence, 125 g ai/ha): 20; Plant response rating, Barley, Winter (barley, winter; Preemergence, 125 g ai/ha): 30; Plant response rating, Canarygrass (canarygrass; Preemergence, 31 g ai/ha): 20; Plant response rating, Canarygrass (canarygrass; Preemergence, 62 g ai/ha): 45; Plant response rating, Canarygrass (canarygrass; Preemergence, 125 g ai/ha): 65; Plant response rating (canarygrass; Preemergence, 250 g ai/ha): 75; Plant response rating, Bluegrass (bluegrass; Preemergence, 31 g ai/ha): 15; Plant response rating, Bluegrass (bluegrass; Preemergence, 62 g ai/ha): 15; Plant response rating, Bluegrass (bluegrass; Preemergence, 125 g ai/ha): 45; Plant response rating (bluegrass; Preemergence, 250 g ai/ha): 70
4 | O=C1NCC(c2cccc(C(F)(F)F)c2)C1C(=O)Nc1ccc(F)cc1F (racemic) [Compound 207] |  |  |  |  |  | 0 | 15 | 35 |  |  |  |  |  | 5 | 10 | 45 |  |  |  |  | Plant response rating, Buckwheat, Wild (buckwheat, wild; Preemergence, 125 g ai/ha): 25; Plant response rating, Barley, Winter (barley, winter; Preemergence, 125 g ai/ha): 25; Plant response rating, Canarygrass (canarygrass; Preemergence, 31 g ai/ha): 0; Plant response rating, Canarygrass (canarygrass; Preemergence, 62 g ai/ha): 5; Plant response rating, Canarygrass (canarygrass; Preemergence, 125 g ai/ha): 0; Plant response rating (canarygrass; Preemergence, 250 g ai/ha): 75; Plant response rating, Bluegrass (bluegrass; Preemergence, 31 g ai/ha): 0; Plant response rating, Bluegrass (bluegrass; Preemergence, 62 g ai/ha): 15; Plant response rating, Bluegrass (bluegrass; Preemergence, 125 g ai/ha): 15; Plant response rating (bluegrass; Preemergence, 250 g ai/ha): 30
5 | O=C1NCC(c2cc(F)c(F)c(F)c2)C1C(=O)Nc1ccccc1F (racemic) [Compound 34] | 0 | 0 | 0 | 0 | 0 |  |  |  | 0 | 0 | 0 | 0 | 0 |  |  |  | 0 | 0 | 0 | 0 | Plant response rating (canarygrass; Postemergence, 250 g ai/ha): 0; Plant response rating (bluegrass; Postemergence, 16 g ai/ha): 0; Plant response rating (bluegrass; Postemergence, 31 g ai/ha): 0; Plant response rating (bluegrass; Postemergence, 62 g ai/ha): 0; Plant response rating (bluegrass; Postemergence, 125 g ai/ha): 0; Plant response rating (bluegrass; Postemergence, 250 g ai/ha): 0
